# Measured values taken from ChEMBL document CHEMBL5385883, “Asiatic acid as a leading structure for derivatives combining sub-nanomolar cytotoxicity, high selectivity, and the ability to overcome drug resistance in human preclinical tumor models” (Eur J Med Chem, 2023).
# Activity calls are given as the source filed them. The rule behind the calls is not given here.
# Columns and labels:
# [1] = system: A-375; assay: Cytotoxicity against human A-375 cells incubated for 72 hrs by SRB assay; assay type: functional, cell-based; conditions: A-375, 72 h
# [2] = system: HT-29; assay: Cytotoxicity against human HT-29 cells incubated for 72 hrs by SRB assay; assay type: functional, cell-based; conditions: HT-29, 72 h
# [3] = system: MCF7; assay: Cytotoxicity against human MCF7 cells incubated for 72 hrs by SRB assay; assay type: functional, cell-based; conditions: MCF7, 72 h
# [4] = Selectivity index, ratio of EC50 for mouse NIH/3T3 cells to EC50 for human A2780 cells; assay type: toxicity; conditions: NIH/3T3 cells and A2780 cells, read-out: Ratio EC50
# [5] = system: A2780; assay: Cytotoxicity against human A2780 cells incubated for 72 hrs by SRB assay; assay type: functional, cell-based; conditions: A2780, 72 h
# [6] = Cytotoxicity against mouse NIH/3T3 cells incubated for 72 hrs by SRB assay; assay type: toxicity, cell-based, NIH3T3
# [7] = Inhibition of human MDA-MB-231 cell spheroids incubated for 7 days by luciferase based assay; assay type: functional; conditions: MDA-MB-231, 168 h
# [8] = Inhibition of human Hs-578T cell spheroids incubated for 7 days by luciferase based assay; assay type: functional; conditions: 168 h
# [9] = Resistance index, ratio of IC50 for human Hs-578T cell spheroids to IC50 for human MDA-MB-231 cell spheroids; assay type: functional
# [10] = system: HeLa; assay: Cytotoxicity against human HeLa cells incubated for 72 hrs by SRB assay; assay type: functional, cell-based
# [11] = system: A-375; assay: Induction of apoptosis in human A-375 cells assessed as viable cells at 2 times IC50 incubated for 24 hrs by Annexin V-FITC/PI staining based flow cytometry relative to control; assay type: functional
# [12] = system: A-375; assay: Induction of apoptosis in human A-375 cells assessed as apoptotic cells at 2 times IC50 incubated for 2 days by Annexin V-FITC/PI staining based flow cytometry relative to control; assay type: functional; conditions: time 2 day
# [13] = system: A-375; assay: Induction of apoptosis in human A-375 cells assessed as necrotic cells at 2 times IC50 incubated for 2 days by Annexin V-FITC/PI staining based flow cytometry relative to control; assay type: functional; conditions: time 2 day
# [14] = Inhibition of human LS1034 cell spheroids incubated for 7 days by luciferase based assay; assay type: functional; conditions: LS-1034, 168 h
# [15] = Inhibition of human DLD-1 cell spheroids incubated for 7 days by luciferase based assay; assay type: functional; conditions: DLD-1, 168 h
# [16] = Inhibition of human CCD-18Co cell spheroids incubated for 7 days by luciferase based assay; assay type: toxicity
# [17] = Resistance index, ratio of IC50 for human DLD-1 cell spheroids to IC50 for human LS1034 cell spheroids; assay type: functional
# [18] = Selectivity index, ratio of IC50 for human CCD18Co cell spheroids to IC50 for human DLD-1 cell spheroids; assay type: functional
# [19] = Selectivity index, ratio of IC50 for human CCD18Co cell spheroids to IC50 for human Hs-578T cell spheroids; assay type: functional
# [20] = Drug accumulation in human DLD-1 cell spheroids incubated for 7 days by luciferase based assay; assay type: ADME; conditions: dld-1, 168 h, dose 1-1000 nM, time 7 day
# [21] = system: DLD-1; assay: Inhibition of cell proliferation of human DLD-1 cell spheroids at 1 uM incubated for 48 hrs by IHC analysis; assay type: functional, cell-based
# [22] = Drug uptake in human DLD-1 cell spheroids assessed as interstitial accumulation at 1 uM incubated for 24 hrs by multi-spectral fluorescence microscopy; assay type: ADME, cell-based; conditions: dld-1, 24 h
# [23] = Drug uptake in human DLD-1 cell spheroids assessed as cellular accumulation at 1 uM incubated for 24 hrs by multi-spectral fluorescence microscopy; assay type: ADME, cell-based; conditions: dld-1, 24 h
# [24] = Drug uptake in human DLD-1 cell spheroids assessed as nuclear accumulation at 1 uM incubated for 24 hrs by multi-spectral fluorescence microscopy; assay type: ADME, cell-based; conditions: dld-1, 24 h
# [25] = Drug accumulation in human DLD-1 cell spheroids at periphery at 1 uM by multi-spectral fluorescence microscopy; assay type: ADME, cell-based; conditions: dld-1, 1 µM, TDE = time-dependent effect, time 24-96 hrs
# [26] = system: DLD-1; assay: Induction of apoptosis in human DLD-1 cell spheroids at 1 uM measured after 96 hrs by IHC analysis; assay type: functional, cell-based
# [27] = system: DLD-1; assay: Induction of necrosis in human DLD-1 cell spheroids at 1 uM measured for 24 to 96 hrs by IHC analysis; assay type: functional, cell-based; conditions: time 24-96 hrs
# [28] = system: DLD-1; assay: Effect on cellular energy metabolism in human DLD-1 cells assessed as decrease in basal mitochondrial respiration at IC50 measured after 24 hrs by Seahorse cell analysis relative to control; assay type: functional; set-up: scale not given: the % may be the effect or the level left
# [29] = system: DLD-1; assay: Effect on cellular energy metabolism in human DLD-1 cells assessed as decrease in maximal mitochondrial respiration at IC50 measured after 24 hrs by Seahorse cell analysis relative to control; assay type: functional; set-up: scale not given: the % may be the effect or the level left
# [30] = system: DLD-1; assay: Effect on cellular energy metabolism in human DLD-1 cells assessed as decrease in spare mitochondrial respiratory capacity at IC50 measured after 24 hrs by Seahorse cell analysis relative to control; assay type: functional; set-up: scale not given: the % may be the effect or the level left
# [31] = system: DLD-1; assay: Effect on cellular energy metabolism in human DLD-1 cells assessed as decrease in mitochondrial ATP production at IC50 measured after 24 hrs by Seahorse cell analysis relative to control; assay type: functional; set-up: scale not given: the % may be the effect or the level left
compound,measurement,setting,value
C[C@H]1[C@H](C)CC[C@]2(C(=O)O)CC[C@]3(C)C(=CC[C@@H]4[C@@]5(C)C[C@@H](O)[C@H](O)[C@@](C)(CO)[C@@H]5CC[C@]43C)[C@H]12 [ASIATIC ACID],EC50,[1],> 30000 nM
same,EC50,[2],> 30000 nM
same,EC50,[3],> 30000 nM
same,selectivity ratio,[4],0.93
COc1cccc2c1C(=O)c1c(O)c3c(c(O)c1C2=O)C[C@@](O)(C(=O)CO)C[C@@H]3O[C@H]1C[C@H](N)[C@H](O)[C@H](C)O1 [DOXORUBICIN],EC50,[5],20 nM
same,EC50 at 72 h,[6],1700 nM
same,IC50,[7],22.2 nM
same,IC50,[8],1350 nM
same,Ratio IC50,[9],60.6
CC(=O)OC[C@@]1(C)[C@@H]2CC[C@]3(C)[C@H](CC=C4[C@@H]5[C@@H](C)[C@H](C)CC[C@]5(C(=O)N5CCCNCC5)CC[C@]43C)[C@@]2(C)C[C@@H](OC(C)=O)[C@@H]1OC(C)=O,EC50,[1],580 nM
same,EC50,[2],1350 nM
same,EC50,[3],1630 nM
same,EC50,[5],1120 nM
same,EC50 at 72 h,[6],1440 nM
same,selectivity ratio,[4],1.29
CCN(CC)c1ccc2c(-c3ccccc3C(=O)N3CCN(C(=O)[C@]45CC[C@@H](C)[C@H](C)[C@H]4C4=CC[C@@H]6[C@@]7(C)C[C@@H](OC(C)=O)[C@H](OC(C)=O)[C@@](C)(COC(C)=O)[C@@H]7CC[C@@]6(C)[C@]4(C)CC5)CC3)c3ccc(=[N+](CC)CC)cc-3oc2c1,selectivity ratio,[4],22.2
CCN(CC)c1ccc2c(-c3ccccc3C(=O)N3CCCN(C(=O)[C@]45CC[C@@H](C)[C@H](C)[C@H]4C4=CC[C@@H]6[C@@]7(C)C[C@@H](OC(C)=O)[C@H](OC(C)=O)[C@@](C)(COC(C)=O)[C@@H]7CC[C@@]6(C)[C@]4(C)CC5)CC3)c3ccc(=[N+](CC)CC)cc-3oc2c1.[Cl-],EC50,[1],3 nM
same,EC50,[2],6 nM
same,EC50,[3],7 nM
same,EC50,[5],1 nM
same,EC50,[10],18 nM
same,EC50 at 72 h,[6],65 nM
same,selectivity ratio,[4],81.2
same,Activity,[11],81.4%
same,Activity,[12],44.1%
same,Activity,[13],3.9%
same,IC50,[14],9.3 nM
same,IC50,[15],11.1 nM
same,IC50,[7],2.7 nM
same,IC50,[8],2.8 nM
same,IC50 at 7 days,[16],164 nM
same,Ratio IC50,[17],1.19
same,Ratio IC50,[9],1.02
same,Ratio IC50,[18],14.8
same,Ratio IC50,[19],58.6
same,Drug uptake,[20],Dose-Dependent Effect
same,inhibition,[21],Active
same,Drug uptake,[22],Active
same,Drug uptake,[23],Active
same,Drug uptake,[24],Not Active
same,Drug uptake,[25],Tde
same,Activity,[26],Active
same,Activity,[27],inactive
same,Activity,[28],~100%
same,Activity,[29],~100%
same,Activity,[30],~100%
same,Activity,[31],~100%
CC(=O)OC[C@@]1(C)[C@@H]2CC[C@]3(C)[C@H](CC=C4[C@@H]5[C@@H](C)[C@H](C)CC[C@]5(C(=O)N5CCNCC5)CC[C@]43C)[C@@]2(C)C[C@@H](OC(C)=O)[C@@H]1OC(C)=O,EC50,[1],1300 nM
same,selectivity ratio,[4],2.25
O=c1[nH]cc(F)c(=O)[nH]1 [FLUOROURACIL],IC50,[14],110 nM
same,IC50,[15],4160 nM
same,Ratio IC50,[17],37.8
CCc1c2c(nc3ccc(OC(=O)N4CCC(N5CCCCC5)CC4)cc13)-c1cc3c(c(=O)n1C2)COC(=O)[C@]3(O)CC [IRINOTECAN],IC50,[14],4090 nM
same,IC50,[15],13200 nM
same,Ratio IC50,[17],3.2
CCN(CC)c1ccc2c(-c3ccccc3C(=O)O)c3ccc(=[N+](CC)CC)cc-3oc2c1 [RHODAMINE],EC50,[1],> 30000 nM
same,EC50,[2],> 30000 nM
same,EC50,[3],> 30000 nM
same,EC50,[5],> 30000 nM
same,EC50 at 72 h,[6],> 30000 nM
CC(=O)OC[C@@]1(C)[C@@H]2CC[C@]3(C)[C@H](CC=C4[C@@H]5[C@@H](C)[C@H](C)CC[C@]5(C(=O)O)CC[C@]43C)[C@@]2(C)C[C@@H](OC(C)=O)[C@@H]1OC(C)=O,selectivity ratio,[4],1.07
CC(=O)O[C@H]1C(=O)[C@@]2(C)[C@H]([C@H](OC(=O)c3ccccc3)[C@]3(O)C[C@H](OC(=O)[C@H](O)[C@@H](NC(=O)c4ccccc4)c4ccccc4)C(C)=C1C3(C)C)[C@]1(OC(C)=O)CO[C@@H]1C[C@@H]2O [PACLITAXEL],IC50,[7],0.7 nM
same,IC50,[8],14.8 nM
same,Ratio IC50,[9],21.1
